{"source": "paper PMC9960821", "about": "“Evaluation of Rhenium and Technetium-99m Complexes Bearing Quinazoline Derivatives as Potential EGFR Agents” (Molecules, 2023)", "key": {"[1]": {"assay": "Cysteine and histidine challenge of 99mTc complexes (RP-HPLC)", "assay_type": "physicochemical", "procedure": "(§1) The stability of complexes 5b and 7b was studied in their reaction mixture and after isolation by HPLC for up to 24 h.\nCysteine and histidine challenge: Histidine (100 µL, 1 × 10^−2 M) or cysteine (100 µL, 1 × 10^−2 M) solution in 0.1 M PBS was mixed with 100 µL (50–120 MBq) of the RP-HPLC isolated ^99mTc complexes in 0.1 M PBS (800 µL). The mixtures were incubated at 37 °C for up to 24 h and analyzed by RP-HPLC at 1, 6, and 24 h intervals."}, "[2]": {"assay": "Biodistribution in healthy Swiss Albino mice after intravenous injection", "assay_type": "in vivo", "settings": "i.v.", "procedure": "The pharmacokinetic profile of complexes 5b and 7b was evaluated in Swiss Albino healthy male mice at 5, 60, and 240 min post intravenous injection. Table 4 presents the results of the biodistribution studies expressed as % Injected Dose (ID)/g ± Standard Deviation (±SD). […] The high lipophilicity characterizing both complexes justifies the rapid hepatobiliary excretion, given the decreasing activity in the liver and the increasing amount of radioactivity in the intestines. Complex 5b presented faster clearance and elimination in the intestines at 60 min p.i. 34.05% of the radioactivity excreted, compared to 29.89% at 240 min p.i. of complex 7b. Radioactivity in the urine remained low in general, however, the lower logD7.4 value of complex 7b explains the relatively higher activity in the urines (7.88 ± 0.71%) as it is slightly more hydrophilic than 5b. Moreover, the low uptake in the brain indicates almost no blood-brain barrier penetration, although the complexes have favorable physicochemical characteristics.\nAll the biodistribution experiments were carried out in compliance with the national laws and European protocols (2010/63/EU) related to the conduct of animal experimentation. Nine healthy Swiss Albino mice (male, 30 ± 3 g), divided into three groups of three, were injected with the HPLC-purified 5b or 7b complex in saline with 10% EtOH (0.1 mL, ~75 kBq) through the tail vein. For each group, the animals were sacrificed by cardiectomy under slight ether anesthesia 5, 60, and 240 min after the injection. The organs of interest were excised, weighed, and counted in an automatic gamma counter. The bladder and excreted urine were not weighed. The stomach and intestines were not emptied of food contents prior to radioactivity measurements. The percentage of injected dose per organ (%ID/organ) was calculated by comparison of sample radioactivity to standard solutions containing 10% of the injected dose. The calculation for blood and muscle was based on measured activity, sample weight, and body composition data (considering that blood and muscle comprise 7 and 43% of body weight). The percentage of injected dose per gram (%ID/g) was calculated by dividing the %ID/organ by the weight of the organ or tissue."}, "[3]": {"assay": "Stability of 99mTc complexes in reaction mixture and after isolation in PBS (RP-HPLC)", "assay_type": "physicochemical", "procedure": "as §1\nStability of ^99mTc complexes in the reaction mixture: Samples of the ^99mTc complexes’ reaction mixture were stored at room temperature for up to 24 h. At 1, 6, and 24 h intervals, 100 μL of each sample was removed and analyzed by RP-HPLC.\nStability of isolated ^99mTc complexes: Purification and isolation of 5b and 7b complexes were performed by injection of the reaction mixture into RP-HPLC and isolation of the eluted compounds’ peaks, corresponding to the elution time of each complex. Followingly, 0.1 M PBS buffer solution (900 µL) was added to a vial containing 100 µL (50–120 MBq) of the isolated technetium-99m complex. The sample was incubated at 37 °C for up to 24 h and analyzed by RP-HPLC at 1, 6, and 24 h intervals."}, "[4]": {"assay": "Lipophilicity, shake-flask distribution coefficient", "assay_type": "physicochemical", "settings": "n-octanol/0.1 M phosphate buffer pH 7.4", "procedure": "The pharmacokinetic profile of the studied compounds could be affected by their lipophilicity, expressed as the logarithm of the distribution coefficient (log Do/w). The lipophilicity of complexes 5b and 7b was determined in physiological conditions (n-octanol/0.1 M phosphate buffer pH 7.4). […] The presence of the pyridine ring in the chemical structure of complex […] increases the log D7.4 value, as expected.\nThe distribution coefficient of the 5b and 7b complexes was determined with the shake-flask method. The RP-HPLC isolated ^99mTc complexes (20 μL, ~75 kBq) were mixed with 2 mL of 1-octanol and 2 mL of phosphate buffer solution (PBS, 0.1 M, pH 7.4) in a centrifuge tube. The mixture was vortexed at room temperature for 2 min and centrifuged at 5000 rpm for 10 min. The radioactivity of each phase (200 μL) was counted in a gamma counter. The distribution coefficient was calculated by dividing the cpm/mL in the 1-octanol phase by those in the buffer, and the results were expressed as logD7.4. Each experiment was run in triplicate."}}, "data": [{"compound": "NC(CSCCCCCC(=O)Nc1ccc2ncnc(Nc3cccc(Br)c3)c2c1)C(=O)[O-].[99Tc+].[C-]#[O+].[C-]#[O+].[C-]#[O+]", "note": "(stereo not shown) [Compound 7b]", "values": [{"measurement": "Stability after incubation with excess of histidine and cysteine", "setting": "[1]; 24 h, molar ratio 1/1000, HPLC", "result": "> 95", "unit": "%"}, {"measurement": "%RCP in Cysteine for 24 h", "setting": "[1]; excess cysteine, 37 °C", "result": "95 ± 1", "unit": "%"}, {"measurement": "%RCP in Histidine for 24 h", "setting": "[1]; excess histidine, 37 °C", "result": "95 ± 2", "unit": "%"}, {"measurement": "In vivo stability (low spleen and stomach radioactivity; no oxidation to pertechnetate/TcO2)", "setting": "[2]", "result": "stable in vivo"}, {"measurement": "Blood %Injected Dose/g", "setting": "[2]; 5 min", "result": "1.06 ± 0.29", "unit": "%Injected Dose/g"}, {"measurement": "Brain %Injected Dose/g", "setting": "[2]; 5 min", "result": "0.06 ± 0.02", "unit": "%Injected Dose/g"}, {"measurement": "Heart %Injected Dose/g", "setting": "[2]; 5 min", "result": "0.97 ± 0.29", "unit": "%Injected Dose/g"}, {"measurement": "Intestines %Injected Dose/g", "setting": "[2]; 5 min", "result": "10.62 ± 1.17", "unit": "%Injected Dose/g"}, {"measurement": "Kidneys %Injected Dose/g", "setting": "[2]; 5 min", "result": "13.04 ± 2.34", "unit": "%Injected Dose/g"}, {"measurement": "Liver %Injected Dose/g", "setting": "[2]; 5 min", "result": "23.33 ± 3.63", "unit": "%Injected Dose/g"}, {"measurement": "Lungs %Injected Dose/g", "setting": "[2]; 5 min", "result": "1.19 ± 0.22", "unit": "%Injected Dose/g"}, {"measurement": "Muscle %Injected Dose/g", "setting": "[2]; 5 min", "result": "0.29 ± 0.11", "unit": "%Injected Dose/g"}, {"measurement": "Pancreas %Injected Dose/g", "setting": "[2]; 5 min", "result": "1.10 ± 0.11", "unit": "%Injected Dose/g"}, {"measurement": "Spleen %Injected Dose/g", "setting": "[2]; 5 min", "result": "0.92 ± 0.32", "unit": "%Injected Dose/g"}, {"measurement": "Stomach %Injected Dose/g", "setting": "[2]; 5 min", "result": "1.04 ± 0.10", "unit": "%Injected Dose/g"}, {"measurement": "Urine % ID", "setting": "[2]; 5 min", "result": "0.08 ± 0.06", "unit": "% ID"}, {"measurement": "Blood %Injected Dose/g", "setting": "[2]; 60 min", "result": "0.30 ± 0.09", "unit": "%Injected Dose/g"}, {"measurement": "Brain %Injected Dose/g", "setting": "[2]; 60 min", "result": "0.02 ± 0.01", "unit": "%Injected Dose/g"}, {"measurement": "Heart %Injected Dose/g", "setting": "[2]; 60 min", "result": "0.18 ± 0.03", "unit": "%Injected Dose/g"}, {"measurement": "Intestines %Injected Dose/g", "setting": "[2]; 60 min", "result": "26.81 ± 1.61", "unit": "%Injected Dose/g"}, {"measurement": "Kidneys %Injected Dose/g", "setting": "[2]; 60 min", "result": "1.94 ± 0.28", "unit": "%Injected Dose/g"}, {"measurement": "Liver %Injected Dose/g", "setting": "[2]; 60 min", "result": "4.88 ± 0.47", "unit": "%Injected Dose/g"}, {"measurement": "Lungs %Injected Dose/g", "setting": "[2]; 60 min", "result": "0.26 ± 0.04", "unit": "%Injected Dose/g"}, {"measurement": "Muscle %Injected Dose/g", "setting": "[2]; 60 min", "result": "0.13 ± 0.12", "unit": "%Injected Dose/g"}, {"measurement": "Pancreas %Injected Dose/g", "setting": "[2]; 60 min", "result": "0.24 ± 0.05", "unit": "%Injected Dose/g"}, {"measurement": "Spleen %Injected Dose/g", "setting": "[2]; 60 min", "result": "0.11 ± 0.02", "unit": "%Injected Dose/g"}, {"measurement": "Stomach %Injected Dose/g", "setting": "[2]; 60 min", "result": "0.97 ± 0.22", "unit": "%Injected Dose/g"}, {"measurement": "Urine % ID", "setting": "[2]; 60 min", "result": "5.83 ± 0.02", "unit": "% ID"}, {"measurement": "Blood %Injected Dose/g", "setting": "[2]; 240 min", "result": "0.18 ± 0.04", "unit": "%Injected Dose/g"}, {"measurement": "Brain %Injected Dose/g", "setting": "[2]; 240 min", "result": "0.07 ± 0.06", "unit": "%Injected Dose/g"}, {"measurement": "Heart %Injected Dose/g", "setting": "[2]; 240 min", "result": "0.12 ± 0.00", "unit": "%Injected Dose/g"}, {"measurement": "Intestines %Injected Dose/g", "setting": "[2]; 240 min", "result": "29.89 ± 2.41", "unit": "%Injected Dose/g"}, {"measurement": "Kidneys %Injected Dose/g", "setting": "[2]; 240 min", "result": "1.12 ± 0.03", "unit": "%Injected Dose/g"}, {"measurement": "Liver %Injected Dose/g", "setting": "[2]; 240 min", "result": "4.46 ± 0.16", "unit": "%Injected Dose/g"}, {"measurement": "Lungs %Injected Dose/g", "setting": "[2]; 240 min", "result": "0.25 ± 0.08", "unit": "%Injected Dose/g"}, {"measurement": "Muscle %Injected Dose/g", "setting": "[2]; 240 min", "result": "0.03 ± 0.00", "unit": "%Injected Dose/g"}, {"measurement": "Pancreas %Injected Dose/g", "setting": "[2]; 240 min", "result": "0.12 ± 0.02", "unit": "%Injected Dose/g"}, {"measurement": "Spleen %Injected Dose/g", "setting": "[2]; 240 min", "result": "0.09 ± 0.02", "unit": "%Injected Dose/g"}, {"measurement": "Stomach %Injected Dose/g", "setting": "[2]; 240 min", "result": "0.96 ± 0.06", "unit": "%Injected Dose/g"}, {"measurement": "Urine % ID", "setting": "[2]; 240 min", "result": "7.88 ± 0.71", "unit": "% ID"}, {"measurement": "%RCP in PBS for 24 h", "setting": "[3]; 0.1 M PBS, 37 °C, 24 h", "result": "99 ± 1", "unit": "%"}, {"measurement": "Stability in reaction mixture and after isolation by HPLC", "setting": "[3]; up to 24 h, room temperature or 37 °C", "result": "No decomposition"}, {"measurement": "log D7.4", "setting": "[4]", "result": "2.87 ± 0.32"}]}]}
